Experimental findings from US12492184B2, “Heteroaryl compounds, preparation methods and uses thereof” (InventisBio Co., Ltd., priority 2020, dated 2025) are described below.

One assay has as its system HEK-Blue IL23 Reporter. Nature of the assay: HEK-Blue IL-23 STAT3 Reporter Assay. The class given is cell-based, human. To be noted: HEK-Blue IL23 cells stimulated with IL-23 overnight; SEAP read with QUANTI-Blue at OD655. As to the method: HEK-Blue IL23 cells (InvivoGen catalog #HKB-IL23) are designed for the detection of bioactive IL-23 by monitoring the activation of the STAT3 pathway. They were generated by stably introducing the genes for the human IL-23 receptor, STAT3, and the SEAP (secreted embryonic alkaline phosphatase) reporter gene into human HEK293 cell line.
Briefly, around 50,000 cells in DMEM medium supplemented with 10% heat inactivated FBS (˜180 ul) were seeded into each well and incubate for 48 hours at 37° C. with 5% CO2 in air. On day 3, one microliter of compound and 20 ul IL-23 were transferred to the assay plate respectively. The plate was left in the 37° C. incubator overnight. Two microliter of cell supernatant was transferred to a 384-well plate, and 18 ul of resuspended QUANTI-Blue solution was added to each well. SLAP levels were determined using Tecan Spark at OD655.
Cells with no IL23 added were used as Low control. Cells stimulated with IL23 were used as High control. Inhibition rate was calculated with the formula of % inhibition=100*(High control−Treated Well)/(High Control−Low control). IL-23 reporter assay inhibition IC50 was calculated with the equation of Y=Bottom+(Top-Bottom)/(1+10^((Log IC50−X)*HillSlope)).
Consider `[2H]C([2H])([2H])NC(=O)c1nnc(NC(=O)C2CC2)cc1Nc1nccc2c1S(C)(=O)=NC2` (stereo not drawn) [Compound 56], for which half-maximal inhibition (IC50) required 0.3 nM.

Take `[2H]C([2H])([2H])NC(=O)c1nnc(NC(=O)[C@H]2CC23CC3)cc1Nc1nccc2c1S(C)(=O)=NC2` (stereo partly drawn) [Compound 130]: the IC50 was determined as 59.9 nM.

In turn, `[2H]C([2H])([2H])NC(=O)c1nnc(NC(=O)C2CC2)cc1Nc1nccc2c1S(C)(=O)=NC2` (stereo not drawn) [Compound 57] yielded an IC50 of 51.7 nM.

On to `[2H]C([2H])([2H])NC(=O)c1nnc(NC(=O)C2CCCC2)cc1Nc1nccc2c1S(C)(=O)=NC2` (stereo not drawn) [Compound 91], for which the IC50 is at least 1000 nM.

In the case of `[2H]C([2H])([2H])NC(=O)c1nnc(NC(=O)[C@H]2CC23CC3)cc1Nc1ncccc1S1(=O)=NCCC1` (stereo partly drawn) [Compound 95], the IC50 came to 19.5 nM.

The same assay, now with this note: Homo sapiens, HEK-Blue IL-23, HEK-Blue IL23 cells stimulated with IL-23 overnight; SEAP read with QUANTI-Blue at OD655.
Turning to `[2H]C([2H])([2H])NC(=O)c1nnc(NC(=O)[C@H]2CC23CC3)cc1Nc1ncc(OCCN(C)C)cc1S(C)(=O)=O` [Compound 108], it took 19.5 nM to reach half-maximal inhibition (IC50).

In turn, `COC(=O)Nc1cc(Nc2ncccc2S(C)(=O)=O)c(C(N)=O)nn1` [Compound 23] registered an IC50 of 58.5 nM.

Take `[2H]C([2H])([2H])NC(=O)c1nnc(NC(=O)C2CC2)cc1Nc1ncc(C)cc1S(C)(=O)=O` [Compound 48]: inhibition was half-maximal at 0.46 nM (IC50).

For the molecule `[2H]C([2H])([2H])NC(=O)c1nnc(NC(=O)[C@H]2CC23CC3)cc1Nc1ncc(OC(C)C)cc1S(C)(=O)=O` [Compound 43], the IC50 was found to be 0.34 nM. This IC50 and that of the molecule before are within 1.5-fold of each other.

With `[2H]C([2H])([2H])NC(=O)c1nnc(NC(=O)C2CC2(C)C)cc1Nc1ncc(OC)cc1S(C)(=O)=O` (stereo not drawn) [Compound 27], inhibition was half-maximal at 24.2 nM (IC50).

For `[2H]C([2H])([2H])NC(=O)c1nnc(NC(=O)C2CC2)cc1Nc1ncc(OCCOC(F)F)cc1S(C)(=O)=O` [Compound 78], the IC50 turned out to be 0.8 nM.

In turn, `[2H]C([2H])([2H])NC(=O)c1nnc(NC(=O)[C@H]2CC23CC3)cc1Nc1nccc(OC)c1S(C)(=O)=O` [Compound 34] came in with an IC50 of 548 nM.

Regarding `[2H]C([2H])([2H])NC(=O)c1nnc(NC(=O)[C@H]2[C@@H]3COC[C@@H]32)cc1Nc1ncccc1S(C)(=O)=O` [Compound 38], half-maximal inhibition (IC50) was put at 15.3 nM.

`[2H]C([2H])([2H])NC(=O)c1nnc(NC(=O)[C@H]2CC23CC3)cc1Nc1cc(Cl)ccc1S(C)(=O)=O` [Compound 10] gave an IC50 of 1820 nM.

`[2H]C([2H])([2H])NC(=O)c1nnc(NC(=O)C2(F)CC2)cc1Nc1ncc(OC)cc1S(C)(=O)=O` [Compound 35] gave an IC50 of 11 nM.

In turn, `[2H]C([2H])([2H])NC(=O)c1nnc(NC(=O)C2CC2)cc1Nc1ncc(OC[C@H](C)OC=O)cc1S(C)(=O)=O` [Compound 74] came in with a half-maximal inhibitory concentration (IC50) of 2.2 nM. Against the preceding molecule, the IC50 is about 5-fold lower.

For `[2H]C([2H])([2H])NC(=O)c1nnc(NC(=O)[C@H]2CC23CC3)cc1Nc1ncc(C(C)(C)O)cc1S(C)(=O)=O` [Compound 120], inhibition was half-maximal at 14.7 nM (IC50). This IC50 lies about 6.7-fold higher than the previous one.

Regarding `[2H]C([2H])([2H])NC(=O)c1nnc(NC(=O)[C@H]2CC23CC3)cc1Nc1ncc(CC)cc1S(C)(=O)=O` [Compound 44], half-maximal inhibition (IC50) required 1 nM. This IC50 is about 15-fold lower than that of the molecule before.

The molecule `[2H]C([2H])([2H])NC(=O)c1nnc(NC(=O)C2CC23CC3)cc1Nc1ncc(OC)cc1S(C)(=O)=O` (stereo not drawn) [Compound 1] came in with a concentration for half-maximal inhibition (IC50) of 3.5 nM.

As to `[2H]C([2H])([2H])NC(=O)c1nnc(NC(=O)c2ccn(C)n2)cc1Nc1ncc(OC)cc1S(C)(=O)=O` [Compound 30], the midpoint of inhibition, the IC50, lay at 440 nM. This IC50 lies about 130-fold higher than the previous one.

Regarding `[2H]C([2H])([2H])NC(=O)c1nnc(NC(=O)C2CC2)cc1Nc1nc(C)sc1S(C)(=O)=O` [Compound 71], the IC50 amounted to 5.4 nM. This IC50 lies about 81-fold lower than the previous one.

Take `[2H]C([2H])([2H])NC(=O)c1nnc(NC(=O)C2CC2)cc1Nc1ncc(O[C@@H](C)COC)cc1S(C)(=O)=O` [Compound 69]: the IC50 was found to be 0.2 nM.

`[2H]C([2H])([2H])NC(=O)c1nnc(NC(=O)C2CC2)cc1Nc1ncc(C2CC2)cc1S(C)(=O)=O` [Compound 46] registered an IC50 of 0.2 nM.

For `[2H]C([2H])([2H])NC(=O)c1cnc(NC(=O)[C@H]2CC23CC3)cc1Nc1ncc(Cl)cc1S(C)(=O)=O` [Compound 119], half-maximal inhibition (IC50) was put at 6.2 nM. This IC50 is about 31-fold higher than that of the molecule before.

On to `CS(=O)(=O)c1cccnc1Nc1cc(NC(=O)C2CC23CC3)ncc1C(=O)C1CC1` (stereo not drawn) [Compound 12], for which the concentration for half-maximal inhibition (IC50) stood at 140 nM.

Take `[2H]C([2H])([2H])NC(=O)c1nnc(NC(=O)C2CC2)cc1Nc1ncc(OC(F)F)cc1S(C)(=O)=O` (single isomer, unassigned) [Compound 60]: the IC50 was found to be 1.7 nM.

Turning to `[2H]C([2H])([2H])NC(=O)c1nnc(NC(=O)[C@H]2CC23CC3)cc1Nc1ncc(N2CC(F)C2)cc1S(C)(=O)=O` [Compound 128], the IC50 was 1 nM. Compared with the last molecule, the IC50 is about 1.7-fold lower.

In turn, `[2H]C([2H])([2H])NC(=O)c1nnc(NC(=O)C2CC2)cc1Nc1ncc(OCCOC=O)cc1S(C)(=O)=O` [Compound 79] had a half-inhibitory concentration (IC50) of 3.3 nM.

`[2H]C([2H])([2H])NC(=O)c1nnc(NC(=O)C2CC2)cc1Nc1ncc(F)cc1S(C)(=O)=O` [Compound 45] had an IC50 of 1.5 nM.

In the case of `[2H]C([2H])([2H])NC(=O)c1nnc(NC(=O)C2CC2)cc1Nc1ncc(SC(F)(F)F)cc1S(C)(=O)=O` (single isomer, unassigned) [Compound 54], half-maximal inhibition (IC50) was put at 1.5 nM.

Turning to `[2H]C([2H])([2H])NC(=O)c1nnc(NC(=O)C2CC2)cc1Nc1nc(C)c(F)cc1S(C)(=O)=O` [Compound 72], the half-maximal inhibitory concentration (IC50) turned out to be 1.6 nM.

`[2H]C([2H])([2H])NC(=O)c1nnc(NC(=O)N2CCC2)cc1Nc1ncc(OC)cc1S(C)(=O)=O` [Compound 89]: the IC50 is 7.9 nM. This IC50 lies about 4.9-fold higher than the previous one.

The molecule `[2H]C([2H])([2H])NC(=O)c1nnc(NC(=O)[C@H]2CC23CC3)cc1Nc1nc2c(cc1S(C)(=O)=O)CNCC2` [Compound 40] registered an IC50 of 54.4 nM.

Molecule `[2H]C([2H])([2H])NC(=O)c1cnc(NC(=O)C2CC2)cc1Nc1ncc(F)cc1S(C)(=O)=O` (single isomer, unassigned) [Compound 55] showed an IC50 of 1.5 nM.

The molecule `[2H]C([2H])([2H])NC(=O)c1nnc(NC(=O)[C@H]2CC23CC3)cc1Nc1ncc(OC2COC2)cc1S(C)(=O)=O` [Compound 110] returned a half-inhibitory concentration (IC50) of 2.7 nM.

For `[2H]C([2H])([2H])NC(=O)c1nnc(NC(=O)C2(C)CC2)cc1Nc1ncc(OC)cc1S(C)(=O)=O` [Compound 28], the 50% inhibitory concentration (IC50) is 35.1 nM.

Turning to `[2H]C([2H])([2H])NC(=O)c1nnc(NC(=O)C2CC23CC3)cc1Nc1ncc(F)cc1S(C)(=O)=O` (stereo not drawn) [Compound 3], the midpoint of inhibition, the IC50, lay at 7.1 nM.

In the case of `[2H]C([2H])([2H])NC(=O)c1nnc(NC(=O)[C@H]2CC23CC3)cc1Nc1nscc1S(C)(=O)=O` [Compound 103], inhibition was half-maximal at 5.7 nM (IC50).

With `[2H]C([2H])([2H])NC(=O)c1nnc(NC(=O)C2CC2)cc1Nc1ncc(OCCOC)cc1S(C)(=O)=O` (single isomer, unassigned) [Compound 59], the IC50 was 0.4 nM.

Consider `[2H]C([2H])([2H])NC(=O)c1nnc(NC(=O)C2CC2)cc1Nc1ncc(OC[C@@H](C)OC(F)F)cc1S(C)(=O)=O` [Compound 75], for which the IC50 turned out to be 1.6 nM.

Regarding `[2H]C([2H])([2H])NC(=O)c1nnc(NC(=O)NC2CC2)cc1Nc1ncccc1S(C)(=O)=O` [Compound 21], the IC50 came out at 8.9 nM.

`[2H]C([2H])([2H])NC(=O)c1nnc(NC(=O)C2CC23CC3)nc1Nc1ccccc1S(C)(=O)=O` (stereo not drawn) [Compound 11] displayed an IC50 of 121 nM.

Molecule `[2H]C([2H])([2H])NC(=O)c1nnc(NC(=O)C2CC2)cc1Nc1ncc(C(F)F)cc1S(C)(=O)=O` (single isomer, unassigned) [Compound 58] showed an IC50 of 2.7 nM.

The molecule `[2H]C([2H])([2H])NC(=O)c1nnc(NC(=O)OC)cc1Nc1ncc(OC)cc1S(C)(=O)=O` [Compound 19] registered an IC50 of 20.9 nM.

Molecule `[2H]C([2H])([2H])NC(=O)c1nnc(NC(=O)[C@H]2CC23CC3)cc1Nc1ncc(N2CCOC[C@@H]2C)cc1S(C)(=O)=O` [Compound 122] gave an IC50 of 16.1 nM.

`[2H]C([2H])([2H])NC(=O)c1nnc(NC(=O)C2CC2)cc1Nc1ncc(N2CCOC[C@H]2C)cc1S(C)(=O)=O` [Compound 65]: inhibition was half-maximal at 0.5 nM (IC50). This IC50 is about 32-fold lower than that of the molecule before.

The molecule `[2H]C([2H])([2H])NC(=O)c1nnc(NC(=O)NC2CCC2)cc1Nc1ncc(OC)cc1S(C)(=O)=O` [Compound 88] yielded an IC50 of 0.6 nM.

Consider `[2H]C([2H])([2H])NC(=O)c1nnc(NC(=O)[C@H]2CC23CC3)cc1Nc1ccncc1S(C)(=O)=O` [Compound 13], for which the half-maximal inhibitory concentration (IC50) came out at 346 nM.

`[2H]C([2H])([2H])NC(=O)c1nnc(NC(=O)[C@@H]2CC23CC3)cc1Nc1ncc(OC)cc1S(C)(=O)=O` [Compound 2] returned an IC50 of 4.3 nM.

Turning to `[2H]C([2H])([2H])NC(=O)c1nnc(NC(=O)C2CC2)cc1Nc1ncc(C(F)(F)F)cc1S(C)(=O)=O` [Compound 47], the midpoint of inhibition, the IC50, lay at 1.4 nM.

The molecule `[2H]C([2H])([2H])NC(=O)c1nnc(NC(=O)[C@H]2C[C@@H](OC)C2)cc1Nc1ncc(C2CC2)cc1S(C)(=O)=O` [Compound 84] registered an IC50 of 4.1 nM. This IC50 lies about 2.9-fold higher than the previous one.

Regarding `[2H]C([2H])([2H])NC(=O)c1nnc(NC(=O)C2CC2)cc1Nc1ncc(OC2COC2)cc1S(C)(=O)=O` [Compound 63], inhibition was half-maximal at 1.9 nM (IC50).

Take `[2H]C([2H])([2H])NC(=O)c1nnc(NC(=O)C2CC2)cc1Nc1ncc(OC[C@H](C)OC(F)F)cc1S(C)(=O)=O` [Compound 73]: half-maximal inhibition (IC50) was put at 1.1 nM.

As for `[2H]C([2H])([2H])NC(=O)c1nnc(NC(=O)C2CC2)cc1Nc1ncc(C(C)(C)O)cc1S(C)(=O)=O` [Compound 131], the half-inhibitory concentration (IC50) is 9 nM.
